From the supplement of paper PMC10307832

How the values were obtained:
Experiment in all cases: relative viability (nuclei count vs DMSO), 5 days (fraction); higher = more cells survive
Doxorubicin + Lapatinib = compound: COc1cccc2c1C(=O)c1c(O)c3c(c(O)c1C2=O)C[C@@](O)(C(=O)CO)C[C@@H]3O[C@H]1C[C@H](N)[C@H](O)[C@H](C)O1 [Doxorubicin] + CS(=O)(=O)CCNCc1ccc(-c2ccc3ncnc(Nc4ccc(OCc5cccc(F)c5)c(Cl)c4)c3c2)o1 [Lapatinib] (partner 2 µM)
Summary of the method: (§1)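 Lung cancer cell lines were seeded in 1536-well plates and dosed by pin tool the next day, with either a single drug or a fixed anchor-drug dose combined with five library-drug doses (not always all listed) spaced in √10 steps. Five days later, one step fixed the cells and stained their nuclei (final 0.05% Triton X-100, 1% formaldehyde, 1 ug/ml Hoechst), and nuclei were counted on 4× images. Relative viability is the nuclei count in treated wells divided by the count in vehicle wells, and each value is the median of duplicate plates.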

BAY61-3606 + Pictilisib = compound: COC1=C(C=C(C=C1)C2=CC3=NC=CN3C(=N2)NC4=C(C=CC=N4)C(=O)N)OC [BAY61-3606] + CS(=O)(=O)N1CCN(Cc2cc3nc(-c4cccc5[nH]ncc45)nc(N4CCOCC4)c3s2)CC1 [Pictilisib] (partner 1 µM)
Summary of the method: as §1

BAY61-3606 + Lapatinib = compound: COC1=C(C=C(C=C1)C2=CC3=NC=CN3C(=N2)NC4=C(C=CC=N4)C(=O)N)OC [BAY61-3606] + CS(=O)(=O)CCNCc1ccc(-c2ccc3ncnc(Nc4ccc(OCc5cccc(F)c5)c(Cl)c4)c3c2)o1 [Lapatinib] (partner 2 µM)
Summary of the method: as §1

Doxorubicin + Alpelisib = compound: COc1cccc2c1C(=O)c1c(O)c3c(c(O)c1C2=O)C[C@@](O)(C(=O)CO)C[C@@H]3O[C@H]1C[C@H](N)[C@H](O)[C@H](C)O1 [Doxorubicin] + Cc1nc(NC(=O)N2CCC[C@H]2C(N)=O)sc1-c1ccnc(C(C)(C)C(F)(F)F)c1 [Alpelisib] (partner 2 µM)
Summary of the method: as §1

Cell Line	relative viability (Doxorubicin + Lapatinib; first compound 0.001 µM)	relative viability (Doxorubicin + Lapatinib; first compound 0.003162 µM)	relative viability (Doxorubicin + Lapatinib; first compound 0.01 µM)	relative viability (Doxorubicin + Lapatinib; first compound 0.03162 µM)	relative viability (Doxorubicin + Lapatinib; first compound 0.1 µM)	relative viability (BAY61-3606 + Pictilisib; first compound 0.02 µM)	relative viability (BAY61-3606 + Pictilisib; first compound 0.06325 µM)	relative viability (BAY61-3606 + Pictilisib; first compound 0.2 µM)	relative viability (BAY61-3606 + Pictilisib; first compound 0.6325 µM)	relative viability (BAY61-3606 + Pictilisib; first compound 2 µM)	relative viability (BAY61-3606 + Lapatinib; first compound 0.02 µM)	relative viability (BAY61-3606 + Lapatinib; first compound 0.06325 µM)	relative viability (BAY61-3606 + Lapatinib; first compound 0.2 µM)	relative viability (BAY61-3606 + Lapatinib; first compound 0.6325 µM)	relative viability (BAY61-3606 + Lapatinib; first compound 2 µM)	relative viability (Doxorubicin + Alpelisib; first compound 0.001 µM)	relative viability (Doxorubicin + Alpelisib; first compound 0.003162 µM)	relative viability (Doxorubicin + Alpelisib; first compound 0.01 µM)	relative viability (Doxorubicin + Alpelisib; first compound 0.03162 µM)	relative viability (Doxorubicin + Alpelisib; first compound 0.1 µM)
LU99A	1.01	1.16	0.954	0.583	0.788	0.343	0.352	0.34	0.329	0.278	0.97	1.02	0.909	0.976	0.486	0.489	0.648	0.549	0.505	0.51
NCI-H460	0.86	0.592	0.247	0.0187	0.0161	0.433	0.353	0.319	0.35	0.377	1.05	1.19	0.938	1.01	0.189	0.584	0.386	0.288	0.024	0.0112
NCI-H650	0.925	0.838	0.837	0.595	0.0014	0.984	0.722	0.798	1.01	0.596	1.16	0.948	0.783	0.884	0.801	1.31	1.13	1.06	0.938	0.822
PC-14	0.353	0.351	0.293	0.286	0.302	0.647	0.605	0.654	0.994	0.589	0.367	0.278	0.357	0.339	0.377	0.892	1.01	0.963	0.986	1.01
PC-3 [JPC-3]	0.455	0.444	0.46	0.451	0.448	0.784	0.695	0.695	0.678	0.561	0.468	0.482	0.478	0.436	0.471	1.02	1.02	1.05	1	1.03
NCI-H1944	0.872	0.827	0.857	0.693	0.841	0.384	0.346	0.337	0.326	0.281	0.851	0.88	0.796	0.776	0.587	0.8	0.836	0.851	0.83	0.885
NCI-H1755	0.962	1.05	0.991	1.07	0.998	0.532	0.35	0.463	0.415	0.385	1.08	1.01	0.994	1.12	0.95	0.918	0.992	0.719	0.947	0.94
